Bounds are passed on as bounds.

The conditions of data set [1]: aqueous solution; 0.01 to 1 mM; cited from earlier work.
For data set [2] the following is noted: 37° C. in water, 20 MHz; cited from earlier work.
For data set [3] the following is noted: cited from earlier work.
In a further data set the test system is tumor. The following applies: in vivo; cited from earlier work.
Data set [4] in a line: Optical and photophysical properties of metallotexaphyrins (laser flash photolysis, fluorescence, singlet oxygen luminescence). The settings on record: preliminary, photoexcitation at 350 nm. It is filed as physicochemical. The text has this: Finally, several complexes containing paramagnetic metal ions (e.g. Mn^II, Sm^III, and Eu^III, structures 5c -7c) were investigated.
Comparison of the initial intensity with that obtained using tetrakis (4-hydroxyphenyl)porphyrin (THPP) as photosensitizer^3b under identical conditions allowed calculation of the quantum yields for production of singlet oxygen (^.phi. 1.cndot.2).

Data set [5] concerns Herpes Simplex Virus Type 1 (HSV-1). Description: HSV-1 photoinactivation, viral plaque assay in Vero cells. The data set is classed as cell-based. The following applies: for % Survival Viral Infectivity: light at max absorption, 10 J/cm^2. The text has this: The photosensitized inactivation of Herpes Simple Virus, Type 1 (HSV-1) was investigated in culture medium using various macrocycles of the present invention.
The macrocycle photosensitizing studies employed enveloped HSV-1 as the model for screening based on its ease of propagation and assessment of infectivity in cell culture. The screening procedure for photoinactivation of HSV-1 was similar to the methods previously described.^3 Essentially, selected macrocycles at different concentrations were added to a cell-free suspension of 10^6 PFU/ml of HSV-1. The viral suspensions were irradiated at the optimal absorption wavelength of the selected dye at different light-energy densities. Controls consisted of (1) nonirradiated virus, (2) virus irradiated in the absence of macrocycle, and (3) virus treated with selected concentrations of macrocycle and maintained in the dark. All samples were then assessed for viral infectivity by determining the number of PFU/ml in Vero cells.
Viral suspensions were serially diluted and subsequently absorbed onto Vero cell monolayers for 11/2 hours at 37^~ C. An overlay medium was added and the cells incubated at 37^~ C. for 3-4 days. The overlay medium was then removed, the monolayers fixed with methanol and tinctured with Giemsa, and individual plaques counted under a dissecting microscope. Uninfected cell cultures also were exposed to the macrocycle complexes to rule out direct cytotoxic effects.

In data set [6] the test system is peripheral mononucleated vascular cells (PMC). Description: Mitogenic assay ([3H]-Thy uptake after PHA stimulation) of peripheral mononucleated vascular cells in whole human plasma. It is filed as cell-based. The settings on record: 0.15 μM, 20 joules/cm^2 of 770 nm light, aerobic. On the procedure: Cell kill was determined by [3H]-Thy uptake after phytohemagglutin (PHA) stimulation.
Cell kill was determined by [^3 H]-Thy uptake after PHA stimulation.
The inactivation of PMC's in the absence and presence of light after exposure to concentrations of complex 3A in whole human plasma ranging from 0.015 to 38 μM is shown in FIG. 29 and FIG. 30. Inactivation was judged by mitogenic assay. Toxicity onset with 3A (see FIG. 4B) and 1c (see FIG. 19) in the absence of light was between 0.15 and 1.5 μM (FIG. 29). […] Moderate increase in either photosensitizer concentration or light dosage is expected to result in essentially complete cellular inactivation.

Data set [7] can be described thus: Axial base binding of benzimidazole, 1H NMR spectral titration. The following applies: CDCl3; Scatchard plot; estimated error ≤15%; read-out: K1 (benzimidazole) (converted). The source says: For a rigorously five coordinate starting cadmium complex, such as that represented schematically by structure 3A, where neither the counter anion nor adventitious ligands serves to occupy an apical coordination site, base binding can be considered to occur in accord with equations (1) and (2) shown below. Under conditions where K1 […]K2, these processes can be considered to occur sequentially, giving first a monoligated, presumably pentagonal pyramidal six coordinate species (such as 4bA), followed by a coordinatively saturated bisligated pentagonal bipyramidal product akin to 5aA. Where, however, K2 >>K1this stepwise conceptual approach is invalid. Under these conditions, it becomes easier to analyze the base binding in terms of direct formation of the bisligated material as shown in equation (3).
L+B LB K1 =[LB]/[L][B] (1)
LB+B LB2 K2 =[LB2 ]/[LB][B] (2)
L+2B LB2 K1 K2 =[LB2 ]/[L][B]^2 (3)
The ^1 H NMR titration of 3A .cndot.NO3 with BzIm or pyr-D5 was done. Rigorously purified complex 3A .cndot.NO3 was dried at 80° C. under reduced pressure (1 mmHg) for 1 day. Starting samples for titration were then prepared by dissolving this five coordinate complex (3.32 mg, 0.005 mmol) in 0.7 to 0.75 ml of CDCl3 and transferring quantitatively to an NMR tube. To such samples were then added increasing aliquots of either BzIm or pyr-D5 (as solutions of known concentration in CDCl3) and recording the chemical shift of the "meso" protons at 27^Q C. Control experiments were also carried out by adding known quantities of CF3 CO2 H, D2 O, and NH4 NO3 to similar stock solutions of 3.cndot.NO3.
Determination of Binding Constants. […] The chemical shift data obtained for the "meso" signals as a function of added BzIm were thus analyzed as such at both very low and very high conversion: Standard Scatchard (single reciprocal) plots^38 were constructed by plotting (δ-δo)/[BzIm] vs (δ-δo) according to equation 4 (which corresponds to eq. 5.13 of ref. 38), obtaining K as the absolute value of the slope and the term (δ.infin. -δo)K as the intercept.
(δ-δo)/[BzIm]=-K(δ-δo)+(δ.infi
Here δ is the observed chemical shift, δo is the initial chemical shift of the pure five or six coordinate starting complex (3A .cndot.NO3 or 4bA --NO3), δ.infin. the chemical shift calculated for the final mono- or bisligated complexes 4bA .cndot.NO3 or 5aA .cndot.NO3, K the equilibrium constant in question, and [BzIm] the concentration of free, uncomplexed benzimidazole. […] This was done in a straightforward manner according to the expressions given in equations 5 and 6, where [lig]o represents the concentration of the starting five coordinate ligand 3A .cndot.NO3.
(δ-δo)/δ.infin. -δo) at low
[BzIm].congruent.[BzIm]o -[lig]o at high [BzIm]o (6)
Using these corrected values for [BzIm], straight line Scatchard plots were obtained with R[…]0.99 and 0.98 respectively for the low and high [BzIm]o regimes giving values of K1 and K2 of 1.80×10^4 M^-1 and 12.9 M^-1 respectively.

Data set [8] is described as follows: Stability to demetallation (sulfide, thiosulfate). It is filed as physicochemical. The text has this: The above K1 and K2 (or K1 K2) values are predicated on the assumption that the cadmium complexes under discussion are stable with regards to demetallation and that the equilibria of equations 1 and 2 (or 3) pertain under the conditions of base binding. The first of these concerns is readily apparent: If demetallation occurs, then obviously one is not studying base binding! […] The second concern is particularly important within the context of quantitative work: If, for instance, the starting complex 3.cndot.NO3 is not rigorously five coordinate, then K1 (and perhaps K2 as well) would represent an axial ligand displacement reaction rather than a pure addition process as implied above. Control experiments indicate that the assumption of initial five coordination is reasonable: Independent titrations of 3A .cndot.NO3 with NH4 NO3 and H2 O indicate that only modest and monotonic changes in the chemical shift of the "meso" signals take place over the course of adding ≥50 equivalents of these potentially adventitious ligands.^40 This means that either "complete" binding occurs at 1:1 stoichiometry (essentially ruled out in the case of H2 O on the basis of analytical data), or that these species are poorly coordinating in CHCl3 so that five coordination pertains about cadmium; the latter interpretation appearing more likely.
(§1) Attempts to demetallate complex 3A .cndot.NO3 were made. In an effort to obtain the free sp^2 bridged ligand 2A, the above complex in chloroform was stirred for several hours in the presence of sodium sulfide and independently with sodium thiosulfate. […] In the case of sodium sulfide, this critical conclusion was further supported by FAB MS: Other than the starting cationic complex 3A, no evidence was obtained for any moderate to high molecular weight volatile products in the mass spectrum. […] The rate of this process, however, is strongly pH dependent, the half-life being, for instance, on the order of several hours in the presence of ca. 0.1N HCl.

Data set [9] is described as follows: Hydrolysis in aqueous acid. The data set is classed as physicochemical. The settings on record: aqueous acid.
Text: as §1

As to `[Gd+3]` [Gd(III)], the “toxicity for direct use in MRI imaging” value in data set [1] is “too toxic to be used directly”.
Turning to `CNC[C@H](O)[C@@H](O)[C@H](O)[C@H](O)CO.CNC[C@H](O)[C@@H](O)[C@H](O)[C@H](O)CO.O=C([O-])CN(CCN(CC(=O)[O-])CC(=O)O)CCN(CC(=O)[O-])CC(=O)O.[Gd+3]` [[Gd(DTpA)(H2 O)]^2-, bis(N-methylglucamine) salt of Gd(III) diethylenetriaminepentaacetate], the relaxivity in data set [2] is on record as 3.7 mM-^1 s-^1. In addition, the excretion result in data set [3] (after administration) is listed as “excreted intact through the kidneys within several days of administration”. Besides, in data set [3] (in vivo), the localization result is recorded as “localizes selectively in extracellular regions”.
On to `O=S(=O)([O-])c1ccc(-c2c3nc(c(-c4ccc(S(=O)(=O)[O-])cc4)c4ccc([n-]4)c(-c4ccc(S(=O)(=O)[O-])cc4)c4ccc([n-]4)c(-c4ccc(S(=O)(=O)[O-])cc4)c4nc2C=C4)C=C3)cc1.[Mn+3]` [[Mn(III)TPPS]^3 -], for which, in the data set with tumor, the tumor localizing properties result is “good tumor localizing properties”.
Turning to `CCC1=C(C)c2cnc3ccccc3ncc3nc(cc4[n-]c(cc1n2)c(CC)c4CC)C(CC)=C3C.[Cd+2]` [complex 3A], the triplet quantum yield entry in data set [4] is listed as “roughly 80%”. Also, in data set [4], the “triplet quenching in the presence of air” value is “quenched completely by formation of singlet oxygen”. In data set [4] (absence of oxygen), this compound came in with a triplet lifetime of 54 μs. Moreover, the “% Survival Viral Infectivity” value was 100% in data set [5] (0.25 μM), 20% in data set [5] (2.5 μM), 8% in data set [5] (10 μM) and 12% in data set [5] (20 μM). In [5] (20 μM, viral plaque assay), the viral inactivation is on record as not below 90%. Besides, the “inhibition of cellular division” value in data set [6] is “significant inhibition of the cellular division of PMC's”. For the same compound, the Kd in data set [7] is 55.6 µM. In addition, in data set [8] (aqueous Na2 S / excess sulfide anion), the demetallation by sulfide entry is “no demetallation takes place”. For the same compound, the “stability relative to cadmium porphyrins” value in data set [8] (neutral conditions / base binding controls) is reported as “more stable than cadmium porphyrins”. The “hydrolysis in aqueous acid” value in [9] was “leads to hydrolysis of the macrocyle”.

(Values after patent publication US5587463A, “Texaphyrin macrocycles and metal complexes thereof” (Board of Regents, The University of Texas System, priority 1994, dated 1996).)
